Results as given in US6562837B1, “Use of tetrahydroisoquinoline compounds for the treatment of septicemia” (Korea Institute of Science & Technology, priority 1998, dated 2003).

How the values were obtained:
[1] = system: thrombus formation in AVS tube; assay: Thrombus formation in arterio-venous shunt (AVS) tube in rats; type: in vivo
Experimental: An AVS tube was prepared. For this, a scalp vein set was cut into a length of 18 cm, and each end was connected to a 18G syringe needle while a 100% cotton thread 5 cm long was fixed to the center of the tube. Rats were anesthetized with ketamine (250 mg/kg) by injection (i.m.) and underwent laparotomy. An AVS tube filled with saline was installed between the abdominal aorta and the renal vein in such a way that its one syringe needle was inserted in the abdominal aorta and the other syringe needle was inserted in the renal vein. Blood was allowed to pass through the AVS tube so as to form thrombus on the cotton thread. After circulation of blood through the AVS tube for 15 min, the thread was taken out from the AVS tube. The weight of the thrombus formed on the cotton thread was determined by weighing the thread.

[2] = system: acute thrombosis in the pulmonary artery; assay: Acute thrombosis (collagen plus epinephrine i.v.) in mice, recovery from paralysis; type: in vivo
Experimental: A mixture of collagen (300:μg/kg) plus epinephrine (30:μg/kg) was injected into the tail vein of mice (ICR; […], the same mice were employed in all of the following experiments) to induce massive, acute thrombosis in the pulmonary artery. Thus, an acute thrombosis model, in which mice were paralyzed in 1-3 min after the injection and most of them died within 15 min was prepared. To investigate the effect of the compounds of Chemical Formulas 1 and 2 on the acute thrombosis, either of the compounds was orally administered to mice for 1 or 3 days. The intravenous injection of the mixture of collagen and epinephrine was conducted 1 hour after the final oral administration. An observation was taken to examine the mortality change and the recovery from the paralysis and the results are given in Tables 4 and 5, below.
Most of the mice were paralyzed within 1 min after the injection, following dilation of the pupils, difficult breathing, and convulsions. Most of the mice either died within 5 min or were subjected to paralysis for 15 min or longer. Only a few of them recovered from the paralysis.

[3] = molecular target: α-receptor; assay: Binding affinity to α-adrenoceptor, [3H]prazosin, rat cerebral cortical membrane
Experimental: For this, the cerebral cortex obtained from rats (Sprague-Dawley, 250±20 g; unless particularly mentioned, the same rats were used in the following experiments) was homogeneously mixed with a 20× buffer (50 mM Tris, 5 mM MgSO4, 1 mM EDTA, 1 mM ascorbic acid, pH 7.7) and then, centrifuged three times at 35,000×g for 15 min and the pellet was stored at −70° C. A solution of 5 mg of the pellet in 1 ml of the buffer was incubated, along with [^3H]prazosin (200 pM) and samples, at 25° C. for 30 min followed by adding 10 ml of a buffer (50 mM Tris, pH 7.7) to quench the binding reaction. The resulting solution was filtered through a Whatman GF/C glass microfiber filter which was then shaken for 2 hours while being completely submerged in a scintillation cocktail. The radioactivity was measured using a scintillation counter (Beckman, LS6500)

SMILES | % Inhibition of thrombus formation ([1]; 50 mg/kg orally once a day for successive three days) [%] | Weight (mg) of thrombus ([1]; 50 mg/kg orally once a day for successive three days, control 42.67 ± 5.381) [mg] | % Inhibition of thrombus formation ([1]; 50 mg/kg orally once, first series, control 33.61 mg) [%] | Weights (mg) of thrombus ([1]; 50 mg/kg orally once, first series, control 33.61 ± 7.620) [mg] | % Inhibition of thrombus formation ([1]; 50 mg/kg orally once, second series, control 39.54 mg) [%] | Weights (mg) of thrombus ([1]; 50 mg/kg orally once, second series, control 39.54 ± 5.625) [mg] | Mice Recovered, Number ([2]; 50 mg/kg orally once for three successive days, recovered within 15 min) | Mice Recovered, % ([2]; 50 mg/kg orally once for three successive days, recovered within 15 min, control 20%) [%] | Mice Recovered, Number ([2]; 50 mg/kg orally once, recovered from thrombotic paralysis within 15 min) | Mice Recovered, % ([2]; 50 mg/kg orally once, recovered within 15 min, control 17%) [%] | Kd [3] [nM]
CC(=O)Oc1ccccc1C(=O)O [Aspirin, reference compound] | 12.4 | 37.37 ± 7.369 | 40.8 | 19.89 ± 7.213 | 36.3 | 25.18 ± 6.725 | 11 | 55 | 32 | 52 | 
COc1cc2nc(N3CCN(C(=O)c4ccco4)CC3)nc(N)c2cc1OC [prazosin, reference compound] |  |  |  |  |  |  |  |  |  |  | 0.134 ± 0.00891
